From patent US7317038B2, “Nerve regeneration promoters containing semaphorin inhibitor as the active ingredient” (Dainippon Sumitomo Pharma Co., Ltd., priority 2000, dated 2008)
“Also recorded” adds a separate entry of the source.

Biological target: T1, binding of Sema3A and Neuropilin-1 (Mus musculus, UniProt O08665)
T1 construct: alkaline phosphatase was fused from the 758th amino acid to the C terminal side in said Sema3A; expressed in transfected cells; host or cells: COS7
T1 sequence (O08665 21-758 limits assumed): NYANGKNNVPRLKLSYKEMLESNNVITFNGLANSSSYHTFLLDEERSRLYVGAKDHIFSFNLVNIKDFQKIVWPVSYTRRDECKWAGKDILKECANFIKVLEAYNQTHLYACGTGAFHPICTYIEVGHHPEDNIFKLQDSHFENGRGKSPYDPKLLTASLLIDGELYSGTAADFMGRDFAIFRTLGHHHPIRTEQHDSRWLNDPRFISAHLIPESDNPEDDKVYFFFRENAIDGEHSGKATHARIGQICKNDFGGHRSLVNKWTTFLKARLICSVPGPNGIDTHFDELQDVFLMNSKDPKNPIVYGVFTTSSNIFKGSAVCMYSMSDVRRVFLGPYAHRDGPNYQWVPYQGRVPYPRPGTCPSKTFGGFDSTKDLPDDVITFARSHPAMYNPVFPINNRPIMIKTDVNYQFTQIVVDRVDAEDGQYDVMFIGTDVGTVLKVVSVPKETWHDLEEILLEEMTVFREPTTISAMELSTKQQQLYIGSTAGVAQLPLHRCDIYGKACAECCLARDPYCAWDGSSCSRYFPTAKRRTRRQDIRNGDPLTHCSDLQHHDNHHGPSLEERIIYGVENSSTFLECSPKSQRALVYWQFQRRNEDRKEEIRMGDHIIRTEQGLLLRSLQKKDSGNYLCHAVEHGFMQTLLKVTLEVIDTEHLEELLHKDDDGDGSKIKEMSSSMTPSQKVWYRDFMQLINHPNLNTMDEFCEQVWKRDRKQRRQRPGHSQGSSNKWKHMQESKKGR
Experiment: Sema3A-receptor-binding experiment (Sema3A-AP to Neuropilin-1 expressing COS7 cells)
Conditions: SPF-3059-1 0 to 10 μg/ml
Excerpt: Whether SPF-3059-1 inhibits the binding of Sema3A and Neuropilin-1, which is a component constituting Sema3A receptor complex, was examined in the receptor-binding experiment. Neuropilin-1 and plexin Al are currently known as constituting components of Sema3A receptors. However, mainly Neuropilin-1 is known to contribute to Sema3A binding. Sema3A fused with alkaline phosphatase (human-derived: heat-resistance) (Sema3A-AP) was used as a ligand in the receptor-binding experiment and the amount bound to the receptor was detected with the alkaline phosphatase activity as an index. Mouse-derived Sema3A was used. A recombinant gene was generated in which alkaline phosphatase was fused from the 758th amino acid to the C terminal side in said Sema3A. This recombinant gene was then introduced into a COS7 cell where it was expressed and secreted and Sema3A-AP was prepared.
The receptor-binding experiment was performed as described below. The Neuropilin-1 expressing plasmid (pUCSRα-Neuropilin-1) was introduced into COS7 cells and cultivated for 24 hours. These cells express Neuropilin-1 on the cell surface. […] The alkaline phosphatase activity derived from Sema3A-AP in the cell extract (=binding amount of Sema3A-AP) was determined. […] The solution was then measured for its absorbance at 405 nm (p-nitrophenol: generated from p-nitirophenyl phosphate with alkaline phosphatase).

## CC(=O)c1c(C)c(C(=O)C2COc3cc(O)c(O)c(C(=O)O)c3C2=O)cc2c(=O)c3c(C(=O)O)c(O)c(O)cc3oc12 (stereo not shown) [SPF-3059-1]
  binding of Sema3A-AP to Neuropilin-1 expressing COS7 cells: decrease in a concentration-dependent manner; also recorded: inhibits the binding of Sema3A-AP to Neuropilin-1 in a concentration-dependent manner
